The values below come from US11945799B2, “4-ethynylpyridine derivatives useful as GCN2 inhibitors” (IP2IPO INNOVATIONS LIMITED, priority 2020, dated 2024).

Data set [1] is described as follows: Kinetic solubility in PBS buffer pH 7.4. Format: physicochemical. The conditions noted are these: for solubility kinetic at 90 min: aqueous buffer, kinetic from dmso stock, PBS buffer pH 7.4, 90 minutes at room temperature, from 10 mM DMSO stock. On the procedure:
The kinetic solubility assay investigates a solubility based on the amount of material which remains in solution after a precipitation process. […] Assay is performed using Multiscreen Vacuum Manifold. A buffer of interest (in standard protocol PBS buffer at pH=7.4 is used) is spiked with stock solution and incubated for 90 minutes at room temperature. After that time solution/suspension is filtrated. The concentration of each compound is determined on the base of prepared calibration curve using UV-VIS spectrophotometry method. The assay is made in triplicate.
Buffer of interest: 0.24 g of KH2PO4, 1.44 g of Na2HPO4, 0.2 g of KCl and 8 g NaCl and dissolve in 1 L distilled H2O; adjust pH to appropriate value (pH 7.4). 190 μl of buffer of interest was dispensed into the wells of a 96 well filter plate, followed by 10 μl of compound (10 mM stock solution in DMSO). The plate was shaken gently at room temperature for 90 minutes at 500 rpm using a BioSan, Plate Shaker-Thermostat, PST-60 HL-4. After 90 minutes, the plate was filtered using a vacuum manifold and vacuum pump. 100 μl of each filtrate and 100 μl acetonitrile was transferred to a 96 well UV-visible light transparent plate and the UV-visible absorption spectrum was measured using a Biotek Synergy 2 multiplate reader from 250-500 nm, interval range 10 nm. The amount of test compound was calculated using a calibration curve prepared by serial dilution of compounds in equivalent amounts of DMSO and acetonitrile.

The next data set concerns the target T1, MAP2K5 (Homo sapiens, UniProt Q13163).
T1 sequence (Q13163 1-448): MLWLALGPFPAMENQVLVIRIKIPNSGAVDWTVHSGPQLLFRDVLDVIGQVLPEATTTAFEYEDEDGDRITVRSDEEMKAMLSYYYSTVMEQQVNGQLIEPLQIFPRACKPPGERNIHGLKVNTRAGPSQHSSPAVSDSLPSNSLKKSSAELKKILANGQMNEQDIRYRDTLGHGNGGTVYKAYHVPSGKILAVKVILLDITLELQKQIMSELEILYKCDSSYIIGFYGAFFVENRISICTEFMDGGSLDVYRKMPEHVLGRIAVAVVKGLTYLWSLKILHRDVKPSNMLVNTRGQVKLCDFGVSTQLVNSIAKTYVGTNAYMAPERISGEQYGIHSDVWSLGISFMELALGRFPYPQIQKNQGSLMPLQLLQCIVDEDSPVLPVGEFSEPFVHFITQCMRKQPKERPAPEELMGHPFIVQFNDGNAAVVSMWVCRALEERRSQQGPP
The following applies: KINOMEscan, kinase MAP2K5; as reported in Nakamura et al (2018); cited from earlier work.

Data set [2] concerns the target T2, full-length human GCN2 enzyme (Homo sapiens, UniProt Q9P2K8).
T2 construct: purchased Carna Bioscience
Kind of data set: GCN2 enzyme inhibition, LanthaScreen TR-FRET Kinase Activity assay (10 μM and 300 μM ATP). Format: biochemical. The following applies: for IC50 / Ki: mean of replicate assays. How it is done: Biological and Pharmacokinetic Testing (a) GCN2 Enzyme Inhibition (10 μM and 300 μM Assays) Assay Protocol Overview:
The inhibitory activity of the Example compounds towards GCN2 enzyme was measured according to the description below, using a LanthaScreen TR-FRET (Time Resolved Fluorescence Resonance Energy Transfer) Kinase Activity assay distributed by ThermoFisher Scientific.
The full-length human GCN2 enzyme (UniProt accession number Q9P2K8) was used for all experiments (Carna Bioscience). The TR-FRET pair was composed of GFP-eIF2α and LanthaScreen Terbium-labeled anti-peIF2α (pSer52) Antibody.
Each example compound was dissolved in DMSO (0.15 mM) and dispensed in a 384-well plate by a D300 dispenser (Tecan) to a final concentration range 3000-0.13 nM using the logarithmic dilution mode in 2 replicates. Full inhibition (3000 nM commercial reference inhibitor) and DMSO vehicle control wells were also included on the same plate. All volumes were normalized to the final DMSO concentration of 2% of the reaction volume. Next, 5 μL of H2O was added to each well of the plate.
The enzyme mixture was prepared to obtain the following concentrations: • GCN2—30 nM • unloaded tRNA—0.3 nM • HEPES (pH=7.0)—100 mM • MgCl2—20 mM; MnCl2—10 mM
The mixture was applied by adding 5 μL to each well of the plate. The enzyme and the tested compound were then incubated at room temperature for 20 min while shaking at 450 rpm.
The substrate mixture was prepared to obtain the following concentrations: • GFP-eIF2α—240 nM • ATP—900 μM or 30 μM • HEPES (pH=7.0)—50 mM • MgCl2—10 mM • MnCl2—5 mM.
The mixture was applied by adding 5 μL to each well of the plate. Thus, the final concentrations of the 15 μL reaction mixture were as follows: • GCN2—10 nM • unloaded tRNA—0.1 nM • GFP-eIF2α—80 nM • ATP—300 μM or 10 μM • HEPES (1 M, pH=7.0)—50 mM • MgCl2—10 mM • MnCl2—5 mM.
The reaction was allowed to proceed at room temperature for 30 min while shaking at 450 rpm.
The antibody mixture was prepared to obtain the following concentrations: • Na2EDTA·2H2O—40 mM, in TR-FRET Dilution Buffer (Life technologies) • Tb—anti-peIF2a antibodies—4 nM.
The mixture was applied by adding 15 μL to each well. The plate was then incubated at room temperature for 60 min while shaking at 450 rpm and then read using Tecan Spark reader using specific TR-FRET filters.
The analysis of the GFP/Tb fluorescence results was conducted with GraphPad Prism to determine IC50 for each of the example compounds using 4-parameter model: log(inhibitor) vs. response-variable slope. IC50 and K, values were calculated in the usual way. The assay was carried out between 1 and 15 times. The results in the table below are the mean results from replicate assays for the compound in question, where applicable.
(In general: In TR-FRET formats the signal depends on donor and acceptor labels being close together.)

A further data set addresses STK10 (Homo sapiens, UniProt O94804). The conditions noted are these: KINOMEscan, kinase STK10; as reported in Nakamura et al (2018); cited from earlier work.
The target of another data set is ZAK (Homo sapiens, UniProt Q9NYL2). The following applies: KINOMEscan, kinase ZAK; as reported in Nakamura et al (2018); cited from earlier work.
Data set [3] deals with GCN2. The conditions noted are these: KINOMEscan, kinase GCN2; as reported in Nakamura et al (2018); cited from earlier work.
Data set [4] has as its system GCN2. The experiment in a line: KINOMEscan competition binding assay, GCN2. On the set-up: species or system human. The conditions noted are these: kinase GCN2. On the procedure: (§1) Compounds were tested for activity against off-target kinases using the KINOMEscan™ screening platform, which employs a novel and proprietary active site-directed competition binding assay to quantitatively measure interactions between test compounds and hundreds of human kinases and disease relevant mutant variants.
(§2) For most assays, kinase-tagged T7 phage strains were grown in parallel in 24-well blocks in an E. coli host derived from the BL21 strain. E. coli were grown to log-phase and infected with T7 phage from a frozen stock (multiplicity of infection=0.4) and incubated with shaking at 32° C. until lysis (90-150 minutes). The lysates were centrifuged (6,000×g) and filtered (0.2 μm) to remove cell debris. The remaining kinases were produced in HEK-293 cells and subsequently tagged with DNA for qPCR detection. […] The liganded beads were blocked with excess biotin and washed with blocking buffer (SeaBlock (Pierce), 1% BSA, 0.05% Tween 20, 1 mM DTT) to remove unbound ligand and to reduce non-specific phage binding. […] Test compounds were prepared as 40× stocks in 100% DMSO and directly diluted into the assay. All reactions were performed in polypropylene 384-well plates in a final volume of 0.02 ml. […] The kinase concentration in the eluates was measured by qPCR.

Another data set concerns the target off-target kinases. Kind of data set: KINOMEscan kinase selectivity panel. The conditions noted are these: kinases other than those at <0.5%. Format: binding, human. On the procedure: as §1, §2
The target of a further data set is T3, MEK5 (Homo sapiens, UniProt Q13163).
T3 construct: host or cells: E. coli BL21-derived (T7 phage) or HEK-293
T3 sequence (Q13163 1-448): T1 sequence (Q13163 1-448)
The experiment in a line: KINOMEscan competition binding assay, MEK5. The conditions noted are these: kinase MEK5. How it is done: as §1, §2

The mark [5] stands for this setting: read-out: GCN2 IC50 (nM) 10 uM ATP, 10 uM ATP.
Setting [6] is: read-out: GCN2 IC50 (nM) 300 uM ATP, 300 uM ATP.
Setting [7] is: read-out: GCN2 Ki (nM) 10 uM ATP, 10 uM ATP.
Where [8] appears, read: read-out: GCN2 Ki (nM) 300 uM ATP, 300 uM ATP.

Like-named read-outs stand apart in the source and are kept apart here.

T2 sequence (Q9P2K8 whole entry): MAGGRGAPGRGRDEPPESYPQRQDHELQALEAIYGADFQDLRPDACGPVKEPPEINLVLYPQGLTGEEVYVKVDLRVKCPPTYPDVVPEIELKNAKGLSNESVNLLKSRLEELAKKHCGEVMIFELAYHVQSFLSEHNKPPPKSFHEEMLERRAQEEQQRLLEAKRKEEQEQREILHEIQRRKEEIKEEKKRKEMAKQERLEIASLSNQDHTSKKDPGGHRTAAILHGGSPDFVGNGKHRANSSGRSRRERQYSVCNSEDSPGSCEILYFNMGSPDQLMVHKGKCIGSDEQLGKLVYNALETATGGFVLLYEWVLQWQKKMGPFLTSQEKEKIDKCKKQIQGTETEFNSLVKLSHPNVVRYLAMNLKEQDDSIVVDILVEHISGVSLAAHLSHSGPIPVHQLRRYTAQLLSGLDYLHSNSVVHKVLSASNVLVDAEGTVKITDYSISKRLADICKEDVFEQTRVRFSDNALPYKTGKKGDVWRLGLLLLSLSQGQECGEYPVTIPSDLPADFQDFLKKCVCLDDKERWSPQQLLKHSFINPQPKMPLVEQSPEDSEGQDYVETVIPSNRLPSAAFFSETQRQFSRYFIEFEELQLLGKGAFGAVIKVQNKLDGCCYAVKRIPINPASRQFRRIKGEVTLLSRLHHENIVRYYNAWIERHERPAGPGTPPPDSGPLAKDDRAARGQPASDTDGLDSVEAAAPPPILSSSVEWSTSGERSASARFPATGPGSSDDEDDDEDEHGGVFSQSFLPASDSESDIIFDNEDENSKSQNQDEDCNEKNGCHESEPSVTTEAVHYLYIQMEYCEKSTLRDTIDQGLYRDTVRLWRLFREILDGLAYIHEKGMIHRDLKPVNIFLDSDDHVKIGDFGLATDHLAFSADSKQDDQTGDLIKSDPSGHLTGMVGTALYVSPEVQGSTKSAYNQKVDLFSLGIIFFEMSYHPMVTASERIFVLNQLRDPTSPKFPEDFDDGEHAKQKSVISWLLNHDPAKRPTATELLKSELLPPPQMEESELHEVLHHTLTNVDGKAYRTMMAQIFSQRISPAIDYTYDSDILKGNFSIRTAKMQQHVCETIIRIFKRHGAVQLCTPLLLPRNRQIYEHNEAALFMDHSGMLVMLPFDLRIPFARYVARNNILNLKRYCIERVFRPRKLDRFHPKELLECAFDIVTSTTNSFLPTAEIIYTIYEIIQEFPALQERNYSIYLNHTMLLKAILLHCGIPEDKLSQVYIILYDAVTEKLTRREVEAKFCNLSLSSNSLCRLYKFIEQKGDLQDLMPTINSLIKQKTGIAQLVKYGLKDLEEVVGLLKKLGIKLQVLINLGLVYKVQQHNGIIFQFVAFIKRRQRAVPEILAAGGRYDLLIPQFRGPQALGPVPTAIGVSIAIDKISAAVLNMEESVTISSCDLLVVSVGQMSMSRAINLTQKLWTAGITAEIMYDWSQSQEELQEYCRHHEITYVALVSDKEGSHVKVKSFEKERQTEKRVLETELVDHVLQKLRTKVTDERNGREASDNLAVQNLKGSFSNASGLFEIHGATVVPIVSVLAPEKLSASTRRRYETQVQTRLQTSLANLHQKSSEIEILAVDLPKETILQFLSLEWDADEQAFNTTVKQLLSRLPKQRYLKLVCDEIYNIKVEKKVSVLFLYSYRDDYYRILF
Sequence of ZAK (Q9NYL2 whole entry): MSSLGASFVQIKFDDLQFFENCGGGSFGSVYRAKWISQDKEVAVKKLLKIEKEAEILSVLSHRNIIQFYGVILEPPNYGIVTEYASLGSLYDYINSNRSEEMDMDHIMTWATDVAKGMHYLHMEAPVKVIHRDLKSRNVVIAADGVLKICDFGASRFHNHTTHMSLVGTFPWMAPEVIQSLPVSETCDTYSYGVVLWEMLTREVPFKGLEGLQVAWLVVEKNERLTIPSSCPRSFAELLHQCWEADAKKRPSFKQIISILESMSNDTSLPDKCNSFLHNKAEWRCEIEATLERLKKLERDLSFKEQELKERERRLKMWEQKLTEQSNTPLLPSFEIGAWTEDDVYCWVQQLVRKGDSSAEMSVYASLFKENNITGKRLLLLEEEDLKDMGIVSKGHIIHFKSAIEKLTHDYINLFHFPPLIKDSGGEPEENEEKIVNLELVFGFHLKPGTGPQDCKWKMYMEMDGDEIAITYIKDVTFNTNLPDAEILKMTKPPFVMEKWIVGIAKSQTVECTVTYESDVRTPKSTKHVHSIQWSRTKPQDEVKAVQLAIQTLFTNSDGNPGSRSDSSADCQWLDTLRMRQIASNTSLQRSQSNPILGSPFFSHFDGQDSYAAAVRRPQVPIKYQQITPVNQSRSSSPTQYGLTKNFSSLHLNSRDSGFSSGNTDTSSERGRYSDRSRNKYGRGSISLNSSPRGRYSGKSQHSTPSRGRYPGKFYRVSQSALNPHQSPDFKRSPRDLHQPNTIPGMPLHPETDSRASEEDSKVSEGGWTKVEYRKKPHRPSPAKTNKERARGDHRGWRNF
Sequence of STK10 (O94804 whole entry): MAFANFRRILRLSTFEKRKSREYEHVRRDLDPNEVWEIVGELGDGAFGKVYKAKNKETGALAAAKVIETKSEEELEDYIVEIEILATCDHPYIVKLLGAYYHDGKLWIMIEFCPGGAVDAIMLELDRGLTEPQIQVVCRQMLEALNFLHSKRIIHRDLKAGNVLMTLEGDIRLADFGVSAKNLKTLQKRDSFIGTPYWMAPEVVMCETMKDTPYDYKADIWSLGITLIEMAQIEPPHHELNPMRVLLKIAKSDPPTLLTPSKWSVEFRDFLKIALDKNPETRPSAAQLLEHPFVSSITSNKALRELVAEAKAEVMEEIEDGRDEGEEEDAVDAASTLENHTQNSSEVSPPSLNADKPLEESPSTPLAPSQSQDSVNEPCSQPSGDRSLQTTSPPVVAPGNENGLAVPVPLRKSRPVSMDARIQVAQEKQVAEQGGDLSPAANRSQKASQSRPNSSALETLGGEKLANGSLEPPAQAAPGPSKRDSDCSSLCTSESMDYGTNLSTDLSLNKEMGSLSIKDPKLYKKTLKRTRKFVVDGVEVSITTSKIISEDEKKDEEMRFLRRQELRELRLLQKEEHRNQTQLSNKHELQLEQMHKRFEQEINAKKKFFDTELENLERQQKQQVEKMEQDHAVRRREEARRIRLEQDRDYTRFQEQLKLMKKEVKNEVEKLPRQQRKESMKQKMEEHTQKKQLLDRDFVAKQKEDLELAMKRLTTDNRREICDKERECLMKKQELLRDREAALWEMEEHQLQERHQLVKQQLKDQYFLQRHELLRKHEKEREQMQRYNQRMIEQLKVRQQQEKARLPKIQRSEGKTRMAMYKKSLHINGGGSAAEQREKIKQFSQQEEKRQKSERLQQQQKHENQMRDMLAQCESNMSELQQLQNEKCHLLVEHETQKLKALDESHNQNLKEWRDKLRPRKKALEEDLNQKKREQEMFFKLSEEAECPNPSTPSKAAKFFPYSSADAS

Take `COc1ncc(Cl)cc1S(=O)(=O)Nc1ccc(F)c(C#Cc2cnc(N)nc2)c1F` [Comp Ex 1, reference compound]: in data set [1], the solubility (kinetic) at 90 min came out at 4.7 µg/mL. In addition, the “% Control” value is reported as less than 5% at MAP2K5, less than 5% at STK10, less than 5% at ZAK and less than 0.5% in the data set on GCN2 [3]. Also, the figures for the half-inhibitory concentration (IC50) in [2] (setting [5]) and in data set [2] (setting [6]) were 5.9 nM and 59.2 nM, respectively. Moreover, the Ki amounted to 1.9 nM in [2] (setting [7]) and 0.9 nM in data set [2] (setting [8]).

In the case of `COc1ncc(Cl)cc1S(=O)(=O)Nc1nccc(C#Cc2cnc(N)nc2)c1F` [Example 1, N-{4-[2-(2-aminopyrimidin-5-yl)ethynyl]-3-fluoropyridin-2-yl}-5-chloro-2-methoxypyridine-3-sulfonamide], the “kinetic solubility (in words)” value in data set [1] is “good”. For the same compound, in [1], the solubility (kinetic) at 90 min amounted to 218 µg/mL. In addition, in data set [2], the “GCN2 inhibitory activity (in words)” value was “strong”. Also, the concentration for half-maximal inhibition (IC50) in data set [2] (setting [5]) turned out to be 7.2 nM; in data set [2] (setting [6]) it was 103 nM. The results for the Ki in data set [2] (setting [7]) and in data set [2] (setting [8]) were 2.3 nM and 1.6 nM, respectively. The “% Control” value in the data set with GCN2 [4] is less than 0.5%. Moreover, the “Kinases with % Control <5%” value on off-target kinases was “None”.

`COc1ncc(Cl)cc1S(=O)(=O)Nc1nccc(C#Cc2cnc3[nH]ncc3c2)c1F` [Example 3, 5-chloro-N-[3-fluoro-4-(2-{1H-pyrazolo[3,4-b]pyridin-5-yl}ethynyl)pyridin-2-yl]-2-methoxypyridine-3-sulfonamide]: the “% Control” value at MEK5 is less than 5%; in the data set on GCN2 [4], less than 0.5%. In addition, the “kinetic solubility (in words)” value in [1] is “good”. For the same compound, the kinetic solubility at 90 min in [1] amounted to 229 µg/mL. In addition, in data set [2], the “GCN2 inhibitory activity (in words)” value is recorded as “strong”. Also, the results for the IC50 in [2] (setting [5]) and in data set [2] (setting [6]) were 3.5 nM and 26.5 nM, respectively. Further, the Ki in data set [2] (setting [7]) turned out to be 1.1 nM; in data set [2] (setting [8]) it was 0.6 nM.

For the compound `COc1ncc(Cl)cc1S(=O)(=O)Nc1nccc(C#Cc2cnc3[nH]c(=O)n(C)c3c2)c1F` [Example 36, 5-chloro-N-[3-fluoro-4-(2-{1-methyl-2-oxo-1H,2H,3H-imidazo[4,5-b]pyridin-6-yl}ethynyl)pyridin-2-yl]-2-methoxypyridine-3-sulfonamide], in data set [1], the kinetic solubility at 90 min was found to be 240 µg/mL. Besides, the IC50 in [2] (setting [6]) worked out at 182 nM. The inhibitory constant (Ki) in [2] (setting [8]) was determined as 2.8 nM.

With `COc1ncc(Cl)cc1S(=O)(=O)Nc1nccc(C#Cc2cnc3[nH]nc(OC)c3c2)c1F` [Example 37, 5-chloro-N-[3-fluoro-4-(2-{3-methoxy-1H-pyrazolo[3,4-b]pyridin-5-yl}ethynyl)pyridin-2-yl]-2-methoxypyridine-3-sulfonamide], in data set [1], the kinetic solubility at 90 min is more than 244 µg/mL. The concentration for half-maximal inhibition (IC50) in [2] (setting [6]) came out at 20.9 nM. Moreover, in data set [2] (setting [8]), the Ki turned out to be 0.3 nM.

Take `COc1ncc(Cl)cc1S(=O)(=O)Nc1nccc(C#Cc2cnc(N)c3nccnc23)c1F` [Example 38, N-[4-(2-{5-aminopyrido[3,4-b]pyrazin-8-yl}ethynyl)-3-fluoropyridin-2-yl]-5-chloro-2-methoxypyridine-3-sulfonamide]: the kinetic solubility at 90 min in [1] was 245 µg/mL. Also, in [2] (setting [6]), the IC50 is 55.3 nM. In [2] (setting [8]), the Ki was determined as 0.8 nM.

The solubility (kinetic) is solubility judged after dilution from a stock solution rather than from solid. The IC50 is the concentration at which inhibition is half-maximal. Broadly, the Ki is a dissociation constant, usually derived from enzyme kinetics or from competition with a known ligand.
